Data published in patent US20090029406A1, “Npy Y4 Agonist as Therapeutic Agent for Disease Accompanied by Intestinal Tract Dysfunction” (Banyu Pharmaceutical Co., Ltd., priority 2006, published 2009).

Key:
[1] = tested on: mouse models of constipation induced by clonidine; assay: Mouse models of constipation induced by clonidine, amount of excreted feces (Example 3); assay type: in vivo; conditions: clonidine 0.1 mg/kg i.p., mPP 1 mg/kg s.c. one hour later; 4 hours after clonidine (3 hours after mPP)
Procedure: To male mice (C57BL/6J, 18 weeks of age), clonidine (0.1 mg/kg) was intraperitoneally administered, and to a vehicle group, only saline was intraperitoneally administered. One hour after the administration of clonidine, saline (a control group) or mPP (1 mg/kg) was subcutaneously administered, and also to a vehicle group, only saline was subcutaneously administered. The mice were subjected to fasting at the same time of the intraperitoneal administration of saline or clonidine. Feces were collected at 1, 2, 3 and 4 hours after the administration, and the weight of the feces was measured. A significant difference between groups was analyzed using an analysis of variance and the Tukey's test.

[2] = tested on: proximal colon isolated from a wild-type mouse; assay: Tension of proximal colon isolated from wild-type mouse (Example 5); conditions: 1 μM
Procedure: (§1) The ileum, proximal colon and distal colon were isolated from an NPY Y4 receptor knockout mouse and a wild-type mouse (32 to 37 weeks of age). The specimens were cut into a length of 1 cm, respectively, and were suspended in the longitudinal muscle direction under a resting tension of 0.3 g in 5 mL of Krebs-Henseleit solution oxygenated with 95% O2 and 5% CO2, while setting the temperature of a bath to 37° C. The tension was measured using an isometric transducer (TB-65 1, manufactured by Nihon Kohden), and outputs were recorded at 20 points per second using Power Lab (ADInstrument).
(§2) After equilibration for 1 hour, 1 μM mPP was applied and measurement was carried out for 20 minutes. The above-mentioned mPP was prepared such that it became a 1 mM solution in DMSO, and 5 μL of the resulting solution was applied to 5 mL of an organ bath. The action of mPP was represented by a ratio of an average tension for 20 minutes after the application to an average tension for 20 minutes before the application. The statistical calculation was performed using the Student's t-test or paired t-test.

male mice (C57BL/6J) = assay: Amount of excreted feces after subcutaneous administration to mice (Example 1); assay type: in vivo, mouse
From the text: Also, it is known that the Y4 receptor is present in the lower gastrointestinal tract. Accordingly, by administering mouse PP (mPP) to a mouse, an effect on the movement of the lower gastrointestinal tract of the mouse was studied. That is, how the amount of excreted feces was changed by the administration of mPP was observed, and a change in the gastrointestinal movement was discussed by assuming that an increase in the amount of excreted feces reflects an increase in the lower gastrointestinal tract movement.
To male mice (C57BL/6J, 15 weeks of age), mPP (0.001, 0.01, 0.1 or 1 mg/kg) was subcutaneously administered, and to a vehicle group, only saline (5 mL/kg) was subcutaneously administered. The mice were subjected to fasting at the same time of the subcutaneous administration of saline or mPP. Feces were collected at 1, 2 and 4 hours after the administration, and the weight of the feces was measured. A significant difference between groups was analyzed using an analysis of variance and the Dunnett's test.

[3] = tested on: distal colon isolated from a C57BL/6 mouse; assay: Tension of isolated distal colon, organ bath (Example 2)
Procedure: (§3) The ileum, proximal colon and distal colon were isolated from a C57BL/6 mouse (8 to 20 weeks of age). The specimens were cut into a length of 1 cm, respectively, and were suspended in the longitudinal muscle direction under a resting tension of 0.3 g in 5 mL of Krebs-Henseleit solution (the composition is shown in Table 1) oxygenated with 95% O2 and 5% CO2, while setting the temperature of a bath to 37° C. The tension was measured using an isometric transducer (TB-651, manufactured by Nihon Kohden), and outputs were recorded at 20 points per second using Power Lab (manufactured by ADInstrument).
(§4) After equilibration for 1 hour, mPP at 0.01 μM, 0.1 μM and 1 μM was applied and measurement was carried out for 20 minutes. The above-mentioned mPP was prepared such that it became 0.01 mM, 0.1 mM and 1 mM solutions in DMSO, and 5 μL of each of the resulting solutions was applied to 5 mL of an organ bath. The action of mPP was represented by a ratio of an average tension for 20 minutes after the application to an average tension for 20 minutes before the application. The statistical calculation was performed using the paired t-test.

[4] = tested on: ileum isolated from a C57BL/6 mouse; assay: Tension of isolated ileum, organ bath (Example 2); conditions: 0.01, 0.1 and 1 μM
Procedure: as §3, §4

wild-type mice = assay: Amount of excreted feces in wild-type mice (Example 4); assay type: in vivo, mouse; conditions: 1 mg/kg subcutaneous
Procedure: (§5) The following test was carried out using wild-type mice and NPY Y4 receptor knockout mice (male, 23 to 39 weeks of age, n=10 to 16). mPP (1 mg/kg) or saline (5 mL/kg) was subcutaneously administered to the mice. The mice were subjected to fasting at the same time of the subcutaneous administration. Feces were collected at 1 and 2 hours after the administration, and the weight of the feces was measured. The cumulative amount of feces for 2 hours was used for an analysis, and a significant difference between groups was analyzed using the Student's t-test.

[5] = tested on: ileum isolated from an NPY Y4 receptor knockout mouse and a wild-type mouse; assay: Tension of ileum isolated from NPY Y4 receptor knockout and wild-type mouse (Example 5); conditions: 1 μM
Procedure: as §1, §2

[6] = tested on: proximal colon isolated from a C57BL/6 mouse; assay: Tension of isolated proximal colon, organ bath (Example 2)
Procedure: as §3, §4

[7] = tested on: NPY Y4 receptor knockout mice; assay: Amount of excreted feces in NPY Y4 receptor knockout mice (Example 4); assay type: in vivo, mouse; conditions: 1 mg/kg subcutaneous, vehicle group 358±31 mg/2 h
Procedure: as §5

[8] = tested on: distal colon isolated from a wild-type mouse; assay: Tension of distal colon isolated from wild-type mouse (Example 5); conditions: 1 μM
Procedure: as §1, §2

[9] = 0.01, 0.1 and 1 μM, ratio of average tension 20 min after to 20 min before application

mouse PP (APLEPMYPGDYATPEQMAQYETQLRRYINTLTRPRY; mouse) [mPP]
decrease in the amount of excreted feces compared with the vehicle group [1]: a significant decrease in the amount of excreted feces was not observed | increase in the tension [2]: an increase in the tension observed in the wild-type mouse | cumulative amount of excreted feces for 4 hours after administration (male mice (C57BL/6J); 0.1 mg/kg subcutaneous, P<0.05 vs vehicle group (211±18 mg/4 h)): 325±22 mg/4 h | action of increasing defecation (amount of excreted feces) (male mice (C57BL/6J); 0.001, 0.01, 0.1 or 1 mg/kg subcutaneous, feces collected at 1, 2 and 4 hours): exhibited an action of increasing defecation in a dose dependent manner | cumulative amount of excreted feces for 4 hours after administration (male mice (C57BL/6J); 1 mg/kg subcutaneous, P<0.01 vs vehicle group (211±18 mg/4 h)): 408±36 mg/4 h | dose at which cumulative amount of excreted feces for 4 hours was significant compared with the vehicle group (male mice (C57BL/6J); subcutaneous): ≥ 0.1 mg/kg | amplitude of automatism [3]: an increase in the amplitude of automatism was observed | increase in the tension, dose dependence ([3]; 0.01, 0.1 and 1 μM): increased the tension in a dose dependent manner | maximum action on tension, of that before the application [3, 9]: 152% | increase in the tension [4]: a significant increase in the tension was not observed | action of increasing defecation (wild-type mice): exhibited an action of increasing defecation | cumulative amount of feces for 2 hours (wild-type mice; P<0.01 vs vehicle group (322±41 mg/2 h)): 668±64 mg/2 h | difference in the change in the tension between wild-type and NPY Y4 receptor knockout mouse [5]: a difference was not observed between them | amplitude of automatism [6]: an increase in the amplitude of automatism was observed | increase in the tension, dose dependence ([6]; 0.01, 0.1 and 1 μM): increased the tension in a dose dependent manner | maximum action on tension, of that before the application [6, 9]: 131% | cumulative amount of feces for 2 hours [7]: 403±43 mg/2 h | increase in the tension [8]: an increase in the tension observed in the wild-type mouse
